Laboratory results: patent US20090123501A1, “INHIBITION OF THE SH2-DOMAIN CONTAINING PROTEIN TYR-PHOSPHATASE, SHP-1, TO ENHANCE VACCINES” (Baylor College of Medicine, priority 2007, published 2009)
One block for each molecule: values may come before it.

Tests used:
H-2D^b [1] = biological target: T1, H-2D^b (Mus musculus, UniProt P01899); experiment: MHC class I surface stabilization assay on RMA-S cells, H-2Db; assay type: binding; details: RMA-S cells pulsed with peptide overnight, flow cytometry
T1 construct: lower relative expression of H-2D^b on RMA-S cells compared to H-2K^b; endogenous in cells; host or cells: RMA-S
T1 sequence (P01899 25-362): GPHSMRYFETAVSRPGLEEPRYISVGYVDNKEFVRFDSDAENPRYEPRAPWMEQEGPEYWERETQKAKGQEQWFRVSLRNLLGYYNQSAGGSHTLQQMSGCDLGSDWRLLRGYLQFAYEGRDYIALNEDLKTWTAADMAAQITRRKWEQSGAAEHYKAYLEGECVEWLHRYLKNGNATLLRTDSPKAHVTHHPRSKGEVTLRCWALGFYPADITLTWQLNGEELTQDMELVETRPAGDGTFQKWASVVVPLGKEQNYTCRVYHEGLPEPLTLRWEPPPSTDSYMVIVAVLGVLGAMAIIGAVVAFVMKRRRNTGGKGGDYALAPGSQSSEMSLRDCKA
T1 sequence (P01887 21-119 partner): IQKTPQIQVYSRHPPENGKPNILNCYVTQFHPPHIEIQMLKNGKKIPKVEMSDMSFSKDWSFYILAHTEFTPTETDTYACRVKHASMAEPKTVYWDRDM
Method: (§1) 10^6 RMA-S cells were incubated overnight at 37° C. with each of the five predicted at the concentrations indicated. Cells were stained with antibodies for H-2K^b (Y-3; ATCC-HB176) or H-2D^b (28-14-8S; ATCC-HB27) followed by a goat anti-mouse-FITC second step and MHC class I surface expression was analyzed by flow cytometry. Specific MFI is the mean fluorescent intensity of the sample-mean fluorescent intensity of goat anti-mouse-FITC second step alone. Error bars represent the standard deviation of triplicate measurements.
(§2) The binding affinity of the five predicted peptides was tested. In a surface stabilization assay using the TAP1 deficient cell line RMA-S. RMA-S cells were pulsed with peptide, at the indicated concentrations, and incubated overnight. Cells were stained with antibodies for H-2K^b (Y-3; ATCC-HB176) or H-2D^b (28-14-8S; ATCC-HB27) followed by a fluorescent-labeled secondary antibody and MHC class I surface expression was analyzed by flow cytometry.

TRAMP C2 tumors = experiment: DC vaccination of mice bearing ectopic TRAMP C2 tumors; assay type: in vivo, C57BL/6 mice; details: for TRAMP C2 tumor growth (growth curves, mean tumor volumes): by peptide loaded on DC vaccine, single i.p. vaccination 2×10^6 DCs, vs untreated mice; for TRAMP C2 tumor growth rate (mean tumor volume at day 48 post-vaccination, ANOVA): by peptide, pooled across viral treatments, vs no vaccination
Method: BMDCs were prepared as described above, transduced with either Ad5-SHP-1-shRNA or the control Ad5-scrambled-shRNA at 40,000 viral particles/cell, and pulsed with one of the six peptides listed in Table 1 (OVA, an irrelevant epitope to TRAMP 2 tumors, served as a negative control peptide) or a lysate of TRAMP C2 cells as a positive control antigen. 6-8 week C57BL/6 mice, bearing TRAMP C2 tumors (7×10^6 cells injected s.c. on the dorsal flank three days prior to vaccination), were given a single i.p. vaccination with 2×10^6 treated DCs or left untreated. Tumors were measured (length and width using calipers) every 2-4 days until termination of the study and tumor volume was estimated using the formula: Tumor volume (mm3)=x^2y×0.5236, where x is the smaller tumor dimension, and y is the larger tumor dimension. A-G) TRAMP tumor growth curves for vaccines loaded with the indicated peptides. Error bars represent the standard error of the mean of 5 mice vaccinated in each treatment. […] H-I) ANOVA analysis of peptide function and SHP-1 function. Data represent the averages 10 mice per peptide treatment and 5 mice in the no treatment control group for H) and 35 mice per viral transduction treatment and 5 mice in the no treatment control group for I). The green diamonds represent the mean and 95% confidence interval for each group from the ANOVA. The black line is the mean of means for the study and red symbols indicate significant differences (p<0.05 by Tukey-Kramer HSD multiple comparisons test).
To determine if there was a significant difference between the various peptides used in these DC vaccinations, mice were pooled across viral treatments (Ad5-SHP-1 shRNA or Ad5-scrambled-shRNA) employing the same peptide. An ANOVA for differences in mean tumor volume at day 48 post-vaccination (the time at which the majority of the vaccinated tumor growth curves change slope) and Tukey-Kramer HSD multiple comparisons test.
Next experiments were conducted to determine if vaccines transduced with Ad5-SHP-1-shRNA inhibited tumor growth compared to transduction with Ad5-scrambled-shRNA or no vaccine treatment, irrespective of what peptide was used in the vaccine.

total splenocytes = experiment: T cell subsets in total splenocytes 7 days after DC vaccination, flow cytometry; assay type: in vivo, C57BL/6 mice; details: by peptide, viral treatments pooled, day 7, vs no treatment control
Method: To determine the effect of SHP-1 inhibition on the initiation of T cell responses, BMDCs were cultured and CD11c^+ MACS purified as described above. […] Following peptide loading DCs were left untreated or transduced with one of 3 different adenoviral vectors: 1) Ad5-SHP-1-shRNA; 2) Ad5-scrambled-shRNA; or 3) Ad5-CMV-empty, an adenovirus carrying a CMV promoter expression vector but no insert. […] Using all combinations of peptide and virus treatment yielded 9 experimental vaccines and one no vaccine control. Vaccines (2×10^6 DCs) were injected i.p. into wt C57BL/6 mice. Seven days following vaccination mice were sacrificed and total splenocytes were analyzed by multi-color flow cytometry for the expression of several T cell subsets. CD3^+ CD8^+IFNγ^+ cells were characterized as CTL effectors, CD3^+ CD4^+IFNγ^+ cells were characterized as Th1 helper T cells, and CD4^+ FOXP3^+ cells were characterized as Treg cells. Flow cytometry data were analyzed by one-way analysis of variance (ANOVA) and Tukey-Kramer HSD multiple comparisons test for percentage of cells falling within each population following treatment. Cells were stained with anti-CD3, anti-CD8 and anti IFNγ to differentiate CD8^+ effectors and CD4^+ Th1 T cell skewing or anti-CD4 and anti-FOXP3 to determine Tregs. To determine if there was a peptide specific effects between the 3 different tumor antigens, viral treatments were pooled for each peptide exposure. Data represent the averages 6 mice per peptide treatment group and 2 mice in the no treatment control group. No significant differences were seen between peptides in the induction of Tregs or CD8^+ effector cells.
(§3) Following peptide loading DCs were left untreated or transduced with one of 3 different adenoviral vectors: 1) Ad5-SHP-1-shRNA; 2) Ad5-scrambled-shRNA; or 3) Ad5-CMV-empty, an adenovirus carrying a CMV promoter expression vector but no insert. Vaccines were injected i.p. into wt C57BL/6 mice and T cell skewing analyzed 7 days later by flow cytometry from total splenocytes. Cells were stained with anti-CD3, anti-CD8 and anti IFNγ for effector and Th1 cells or anti-CD4 and anti-FOXP3 for Tregs. For the peptide specific analysis viral treatments were pooled for each peptide exposure. Data represent the averages 6 mice per peptide treatment and two mice in the no treatment control group. The green diamonds represent the mean and 95% confidence interval for each group from the ANOVA. The black line is the mean of means for the study and red asterisk (*) indicates significant differences (p<0.05 by Tukey-Kramer HSD multiple comparisons test).
as §3, with “the SHP-1” for “the peptide”, “each viral treatment.” for “each peptide exposure.”, “and 2” for “and two”, “ANOVA. […]” for “ANOVA. The black line is the mean of means for the study and red asterisk (*) indicates significant differences (p<0.05 by Tukey-Kramer HSD multiple comparisons test).”

AP-1 signaling = experiment: AP-1-dependent secreted alkaline phosphatase reporter in RAW cells; assay type: cell-based, murine; details: transient transfection, IFNγ or LPS stimulation
Method: Function of the mutant and wt SHP-1 constructs was tested in RAW cells by transient transfection of SHP-1 vectors along with a reporter construct expressing a secreted alkaline phosphatase driven by either an NFκB or AP-1 dependent promoter. NFκB and AP-1 are major transcription factors stimulated by toll-like receptor (TLR) and cytokine signaling in immune system cells, and represent likely pathways of SHP-1 inhibition on cellular activation. Cells were transfected with the appropriate construct, reporter and then stimulated with interferon-γ (IFNγ) or bacterial lipopolysaccharide (LPS) as ligands for cytokine and TLR receptors respectively.

H-2D^b [2] = biological target: T2, H-2D^b (mouse, UniProt P01887 21-119; P01899 25-309); experiment: RMA-S surface stabilization assay, flow cytometry with antibody 28-14-8S
T2 construct: whole, on cells;extracellular; MHC class I on RMA-S cells, detected with antibody 28-14-8S (ATCC-HB27) in a surface stabilization assay; also called MHC class 1 molecule H-2D^b
T2 sequence (MHC heavy, looked up): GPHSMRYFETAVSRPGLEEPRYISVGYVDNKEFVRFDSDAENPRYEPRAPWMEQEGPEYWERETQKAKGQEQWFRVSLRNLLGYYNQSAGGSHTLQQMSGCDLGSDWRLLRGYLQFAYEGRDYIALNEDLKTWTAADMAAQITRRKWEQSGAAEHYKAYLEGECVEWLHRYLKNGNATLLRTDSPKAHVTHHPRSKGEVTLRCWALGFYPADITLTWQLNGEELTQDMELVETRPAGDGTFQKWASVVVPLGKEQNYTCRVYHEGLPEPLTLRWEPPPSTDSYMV
T2 sequence (b2m, looked up): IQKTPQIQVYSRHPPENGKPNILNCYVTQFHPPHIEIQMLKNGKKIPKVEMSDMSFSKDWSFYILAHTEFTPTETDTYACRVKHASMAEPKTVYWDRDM
Method: as §1, with “10⁶” for “10^6”, “measurements. This is representative of 3 separate studies.” for “measurements.”
as §2, with “cytometry. […] STEAP₈₄₋₉₁ and STEAP₁₈₆₋₁₉₂ bound with an affinity near that of OVA₂₅₈₋₂₆₅, a well characterized strong binding H-2K^b epitope from chicken ovalbumin. […]” for “cytometry.”

H-2K^b = biological target: T3, H-2K^b (mouse, UniProt P01887 21-119; P01901 22-305, limits assumed); experiment: RMA-S surface stabilization assay, flow cytometry with antibody Y-3
T3 construct: whole, on cells;extracellular; MHC class I on RMA-S cells, detected with antibody Y-3 (ATCC-HB176) in a surface stabilization assay; also called MHC class 1 molecule H-2K^b
T3 sequence (MHC heavy, looked up): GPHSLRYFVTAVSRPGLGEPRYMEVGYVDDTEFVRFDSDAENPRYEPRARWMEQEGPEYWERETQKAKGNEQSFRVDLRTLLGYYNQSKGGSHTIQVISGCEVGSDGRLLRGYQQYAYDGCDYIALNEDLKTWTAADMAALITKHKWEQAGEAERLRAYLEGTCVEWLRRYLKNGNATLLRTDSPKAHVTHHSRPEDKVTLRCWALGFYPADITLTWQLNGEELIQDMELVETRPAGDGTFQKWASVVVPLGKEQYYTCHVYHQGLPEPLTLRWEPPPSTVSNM
T3 sequence (b2m, looked up): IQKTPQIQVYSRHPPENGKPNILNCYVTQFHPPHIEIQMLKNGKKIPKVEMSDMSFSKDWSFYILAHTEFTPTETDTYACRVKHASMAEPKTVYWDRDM
Method: as §1, with “10⁶” for “10^6”, “measurements. This is representative of 3 separate studies.” for “measurements.”
as §2, with “cytometry. […] STEAP₈₄₋₉₁ and STEAP₁₈₆₋₁₉₂ bound with an affinity near that of OVA₂₅₈₋₂₆₅, a well characterized strong binding H-2K^b epitope from chicken ovalbumin. […]” for “cytometry.”

Molecule: AQMNNRDCL [PSCA29-37]
relative binding affinity to H-2Db (MHC class I surface expression) (H-2D^b [1]): did not appear to bind as well as some of the other peptides
TRAMP C2 tumor growth (growth curves, mean tumor volumes) (TRAMP C2 tumors): strong inhibition of tumor growth
TRAMP C2 tumor growth rate (mean tumor volume at day 48 post-vaccination, ANOVA) (TRAMP C2 tumors): significant decrease in tumor growth rate

Molecule: LLLGTVHAL [STEAP262-270]
relative binding affinity to H-2Db (MHC class I surface expression) (H-2D^b [1]): no detectable binding at any peptide concentration

Molecule: SIINFEKL [OVA258-265, reference compound]
TRAMP C2 tumor growth (growth curves, mean tumor volumes) (TRAMP C2 tumors): equivalent to mice receiving no vaccine treatment

Molecule: SVYDFFVWL [Trp-2, reference compound]
Th1 skewing (total splenocytes): significant

Molecule: VSKINRTEM [STEAP327-335]
relative binding affinity to H-2Db (MHC class I surface expression) (H-2D^b [1]): did not appear to bind as well as some of the other peptides
Th1 skewing (total splenocytes): significant
TRAMP C2 tumor growth (growth curves, mean tumor volumes) (TRAMP C2 tumors): strong inhibition of tumor growth
TRAMP C2 tumor growth rate (mean tumor volume at day 48 post-vaccination, ANOVA) (TRAMP C2 tumors): significant decrease in tumor growth rate

Molecule: ca-SHP-1: constitutively active SHP-1 mutant with N-terminal SH2 domain deleted, HA-tagged (SEQ ID NO:9)
AP-1 signaling (AP-1 signaling): suppressing AP-1 signaling

binding result (H-2D^b [2]): binds
Molecule: VSKINRTEM [STEAP327-335]

binding result (H-2D^b [2]): binds
Molecule: AQMNNRDCL [PSCA29-37]

binding result (H-2K^b): binds
Molecule: RSYRYKLL [STEAP186-192]

binding result (H-2K^b): binds
Molecule: LTFLYTLL [STEAP84-91]
